# Test results reported in the supplement of paper PMC10331698.
# ± gives the standard deviation of the averaged measurements.
# How the values were obtained:
# Experiment in all cases: level (log10 ratio to DMSO vehicle control); higher = higher biomarker level / cell amount than vehicle control
# Settings in all cases: in DMSO
# [1] = compound: O=C(O)C(F)(F)C(F)(F)C(F)(F)C(F)(F)C(F)(F)C(F)(F)C(F)(F)C(F)(F)C(F)(F)C(F)(F)C(F)(F)C(F)(F)F [Perfluorotridecanoic acid]
# Protocol: (§1)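 BioMAP Diversity Plus panel of 12 human primary cell co-culture systems (3C, 4H, LPS, SAg, BT, BF4T, BE3C, CASM3C, HDF3CGF, KF3CT, MyoF, Mphg). Compounds were added 1 h before stimulation and left for 24 h (MyoF 48 h; BT 72 h for soluble read-outs or 6 d for IgG). Biomarkers were read by ELISA, cytotoxicity by SRB, PBMC viability and proliferation by Alamar Blue. Each well value was divided by the mean of 8 DMSO control wells on the same plate and log10 transformed; duplicate blinded samples were tested at 4 concentrations.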
# [2] = compound: O=C(O)C(F)(F)C(F)(F)C(F)(F)C(F)(F)C(F)(F)C(F)(F)C(F)(F)C(F)(F)Cl [9-Chloro-perfluorononanoic acid]
# Protocol: as §1
# Perfluorohexanoic acid = compound: O=C(O)C(F)(F)C(F)(F)C(F)(F)C(F)(F)C(F)(F)F [Perfluorohexanoic acid]
# Protocol: as §1
# [3] = compound: O=C(O)C(F)(F)C(F)(F)C(F)(F)C(F)(F)C(F)(F)C(F)(F)C(F)(F)C(F)(F)C(F)(F)C(F)(F)C(F)(F)C(F)(F)C(F)(F)F [Perfluorotetradecanoic acid]
# Protocol: as §1
# [4] = compound: OCC(F)(F)C(F)(F)C(F)(F)C(F)(F)C(F)(F)C(F)F [1H,1H,7H-Dodecafluoro-1-heptanol]
# Protocol: as §1
# [5] = compound: C=CC(=O)OCCC(F)(F)C(F)(F)C(F)(F)C(F)(F)F [2-(Perfluorobutyl)ethyl acrylate]
# Protocol: as §1
# 1H,1H-Heptafluorobutanol = compound: OCC(F)(F)C(F)(F)C(F)(F)F [1H,1H-Heptafluorobutanol]
# Protocol: as §1
Test System,level (log10) ([1]; 1500 nM),level (log10) ([1]; 4400 nM),level (log10) ([1]; 13000 nM),level (log10) ([1]; 40000 nM),level (log10) ([2]; 6700 nM),level (log10) ([2]; 20000 nM),level (log10) (Perfluorohexanoic acid; 6700 nM),level (log10) (Perfluorohexanoic acid; 20000 nM),level (log10) (Perfluorohexanoic acid; 60000 nM),level (log10) ([3]; 6700 nM),level (log10) ([3]; 20000 nM),level (log10) ([4]; 6700 nM),level (log10) ([4]; 20000 nM),level (log10) ([4]; 60000 nM),level (log10) ([5]; 6700 nM),level (log10) ([5]; 20000 nM),level (log10) ([5]; 60000 nM),"level (log10) (1H,1H-Heptafluorobutanol; 6700 nM)","level (log10) (1H,1H-Heptafluorobutanol; 20000 nM)","level (log10) (1H,1H-Heptafluorobutanol; 60000 nM)"
HDF3CGF:MMP-1,-0.0005 ± 0.035,-0.061 ± 0.042,-0.063 ± 0.044,-0.068 ± 0.069,-0.0875 ± 0.005,-0.118 ± 0.011,0.0155 ± 0.036,0.0045 ± 0.016,-0.0145 ± 0.043,-0.044 ± 0.016,-0.019 ± 0.0071,0.0115 ± 0.015,0.0105 ± 0.0021,0.012 ± 0.02,0.0135 ± 0.0064,0.0905 ± 0.022,0.133 ± 0.022,0.0025 ± 0.018,-0.0035 ± 0.0021,-0.016 ± 0.059
HDF3CGF:PAI-I,0.063,0.0515 ± 0.023,0.0505 ± 0.0064,-0.022 ± 0.027,0.0685 ± 0.033,0.0245 ± 0.015,0.0415 ± 0.044,-0.0095 ± 0.021,0.025 ± 0.075,0.0475 ± 0.023,0.0405 ± 0.021,-0.008 ± 0.0085,-0.004 ± 0.02,0.006 ± 0.047,-0.0135 ± 0.0035,-0.0185 ± 0.023,-0.016 ± 0.024,-0.037 ± 0.037,-0.0045 ± 0.025,-0.054 ± 0.083
HDF3CGF:Proliferation 72hr,0.0615 ± 0.07,-0.603 ± 0.43,-0.288 ± 0.069,-0.233 ± 0.091,0.101 ± 0.022,-0.081 ± 0.054,0.04 ± 0.0014,0.015 ± 0.034,0.0305 ± 0.037,0.0655 ± 0.046,-0.063 ± 0.054,0.0045 ± 0.066,0 ± 0.072,0.003 ± 0.044,-0.0325 ± 0.0092,-0.124 ± 0.054,-0.197 ± 0.041,-0.011 ± 0.023,0.0255 ± 0.032,-0.029 ± 0.013
HDF3CGF:SRB,-0.0195 ± 0.035,-0.007 ± 0.021,0.063 ± 0.054,0.067 ± 0.075,0.081 ± 0.016,0.065 ± 0.033,0.0135 ± 0.013,0.0305 ± 0.022,-0.0055 ± 0.0092,0.027 ± 0.014,0.0205 ± 0.069,-0.0345 ± 0.033,-0.007 ± 0.05,-0.0055 ± 0.057,-0.0125 ± 0.057,-0.092 ± 0.073,-0.0805 ± 0.06,-0.047 ± 0.067,0.0415 ± 0.011,0.025 ± 0.033
HDF3CGF:TIMP-1,0.027 ± 0.028,-0.0075 ± 0.044,-0.023 ± 0.069,-0.04 ± 0.051,-0.028 ± 0.027,-0.0105 ± 0.056,-0.0005 ± 0.0078,-0.002 ± 0.016,0.0025 ± 0.015,0.014 ± 0.037,-0.0385 ± 0.11,-0.015 ± 0.027,-0.0055 ± 0.033,0.011 ± 0.044,-0.0375 ± 0.033,-0.0285 ± 0.0064,-0.053 ± 0.03,-0.021 ± 0.017,-0.028 ± 0.0099,-0.048 ± 0.11
HDF3CGF:TIMP-2,0.0455 ± 0.043,0.0415 ± 0.084,0.102 ± 0.019,0.0095 ± 0.013,-0.0645 ± 0.04,-0.146 ± 0.029,0.033 ± 0.0014,0.021 ± 0.017,0.025 ± 0.037,0.091 ± 0.0085,0.036 ± 0.05,-0.0025 ± 0.0092,-0.0035 ± 0.0021,0.0025 ± 0.022,-0.0725 ± 0.057,-0.0805 ± 0.047,-0.0995 ± 0.035,-0.0055 ± 0.025,0.018 ± 0.033,-0.029 ± 0.037
KF3CT:CCL2/MCP-1,0.003 ± 0.076,-0.007 ± 0.02,-0.021 ± 0.031,0.018 ± 0.0042,0.004 ± 0.023,0.036 ± 0.035,-0.0155 ± 0.019,-0.0385 ± 0.018,0.001 ± 0.052,0.004 ± 0.0071,0.0205 ± 0.0078,-0.0055 ± 0.021,-0.0155 ± 0.015,0.004 ± 0.028,-0.036 ± 0.0099,-0.0515 ± 0.0035,-0.028 ± 0.086,0.0035 ± 0.005,0.006 ± 0.0042,0.0235 ± 0.015
KF3CT:CD54/ICAM-1,-0.03 ± 0.013,-0.019,-0.0285 ± 0.026,0.015 ± 0.017,-0.0175 ± 0.00071,-0.039 ± 0.0014,0.0055 ± 0.0064,-0.002 ± 0.013,-0.007 ± 0.011,-0.003 ± 0.027,-0.0375 ± 0.015,-0.002 ± 0.016,-0.0115 ± 0.0064,0.003 ± 0.017,-0.0085 ± 0.0092,-0.0245 ± 0.0078,-0.054 ± 0.0099,0.009 ± 0.0099,-0.0095 ± 0.0092,0.019 ± 0.0014
KF3CT:CXCL8/IL-8,-0.0035 ± 0.04,-0.009 ± 0.037,-0.006 ± 0.033,-0.0315 ± 0.06,0.0015 ± 0.021,-0.0025 ± 0.0035,-0.005 ± 0.014,0.009 ± 0.04,0.031 ± 0.013,0.0005 ± 0.013,0.0245 ± 0.025,0.017 ± 0.0028,0.01 ± 0.025,0.0165 ± 0.016,-0.0095 ± 0.021,-0.003 ± 0.0014,-0.0105 ± 0.018,-0.02 ± 0.0014,-0.021 ± 0.0028,-0.0025 ± 0.016
KF3CT:CXCL9/MIG,-0.002 ± 0.0071,-0.0015 ± 0.005,-0.0035 ± 0.0064,-0.0685 ± 0.079,0.0025 ± 0.0092,-0.0015 ± 0.0021,0.0075 ± 0.0064,0.0035 ± 0.012,0.0095 ± 0.012,-0.0065 ± 0.016,0.0055 ± 0.00071,0.0135 ± 0.012,0.0065 ± 0.0035,0.0015 ± 0.018,-0.0035 ± 0.0021,0.008 ± 0.0042,-0.0235 ± 0.015,-0.0015 ± 0.0021,0.002 ± 0.0028,0.0055 ± 0.005
KF3CT:CXCL10/IP-10,-0.009 ± 0.0071,-0.011 ± 0.0028,-0.015 ± 0.017,-0.06 ± 0.044,-0.0235 ± 0.0035,-0.0715 ± 0.0092,0.0045 ± 0.0092,0.0045 ± 0.005,0.017 ± 0.0014,0.0065 ± 0.016,-0.0165 ± 0.016,0.004,0 ± 0.0014,-0.0055 ± 0.005,-0.009 ± 0.0057,-0.0125 ± 0.022,-0.0285 ± 0.0078,0.004 ± 0.0042,-0.0025 ± 0.016,0.012 ± 0.0071
KF3CT:IL-1alpha,-0.025 ± 0.0099,-0.0435 ± 0.0035,-0.074 ± 0.018,-0.1075 ± 0.00071,-0.0295 ± 0.042,-0.056 ± 0.031,-0.0045 ± 0.011,-0.0185 ± 0.011,0.008 ± 0.021,-0.0135 ± 0.081,-0.0235 ± 0.054,-0.016 ± 0.025,-0.0195 ± 0.032,-0.0115 ± 0.043,-0.036 ± 0.0057,-0.075 ± 0.013,-0.059 ± 0.038,0 ± 0.0042,0 ± 0.0014,-0.018 ± 0.0057
KF3CT:MMP-9,0.0045 ± 0.012,-0.007 ± 0.0028,-0.0155 ± 0.013,-0.0265 ± 0.019,-0.0345 ± 0.0021,-0.106 ± 0.0071,-0.009 ± 0.014,-0.0055 ± 0.0035,0.017 ± 0.016,-0.005 ± 0.0014,0.0065 ± 0.032,0.0075 ± 0.005,-0.003 ± 0.011,0.011 ± 0.0014,-0.01 ± 0.02,-0.0045 ± 0.012,-0.022 ± 0.013,-0.013 ± 0.0071,-0.0065 ± 0.005,-0.01 ± 0.0028
KF3CT:PAI-I,-0.006 ± 0.028,-0.0155 ± 0.015,-0.0135 ± 0.023,-0.052 ± 0.027,-0.01 ± 0.0057,-0.101 ± 0.0078,-0.0075 ± 0.00071,-0.0175 ± 0.0035,-0.0085 ± 0.00071,-0.015 ± 0.0014,0 ± 0.0071,-0.0075 ± 0.0092,-0.0035 ± 0.011,0 ± 0.0042,-0.017 ± 0.0071,-0.005 ± 0.023,-0.008 ± 0.0085,0.0075 ± 0.0021,-0.0005 ± 0.0035,-0.0045 ± 0.0021
